“Also recorded” adds a separate entry of the source. Where a SMILES comes first, the peptide text is derived from it. Where no end group is shown, it is not given here. The star is where a group is joined. X1 = CC1(C)C(=CC=C2CCCC(C=CC3=[N+](CCCCS(=O)(=O)[O-])c4ccc(S(=O)(=O)O)cc4C3(C)C)=C2Oc2ccc(S(=O)(=O)O)cc2)N(CCCCCC(=O)NCCN2C(=O)CC(*)C2=O)c2ccc(S(=O)(=O)O)cc21
Legend:
EpCAM [1] = target: T1, EpCAM (Homo sapiens, UniProt P16422); assay: co-localization assay with anti-EpCAM-AF488 on Hep3B cells; assay type: cell-based
T1 construct: endogenous in cells; host or cells: Hep3B human HCC cells (A1 also names human SG231 ICC cells)
T1 sequence (P16422 24-314): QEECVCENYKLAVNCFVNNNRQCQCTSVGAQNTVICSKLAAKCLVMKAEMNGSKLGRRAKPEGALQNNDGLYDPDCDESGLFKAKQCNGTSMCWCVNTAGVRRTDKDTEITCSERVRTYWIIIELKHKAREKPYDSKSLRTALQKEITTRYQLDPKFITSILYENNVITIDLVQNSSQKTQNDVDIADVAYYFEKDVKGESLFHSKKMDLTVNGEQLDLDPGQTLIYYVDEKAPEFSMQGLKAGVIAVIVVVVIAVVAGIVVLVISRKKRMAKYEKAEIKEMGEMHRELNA
Protocol: (§1) A Pearson's correlation coefficient of p=0.81 was measured from the merged image. […] B) An apparent dissociation constant of kd=43 nM, R^2=0.99 was measured for HPD*-IRDye800 binding to Hep3B cells. The equilibrium dissociation constant kd=1/ka was calculated by performing using a least square fit of the data to the non-linear equation I=(I0+ImaxKa[X])/(I0+Ka[X]). I0 and Imax are the initial and maximum fluorescence intensities, corresponding to no peptide and at saturation, respectively, and [X] represents the concentration of the bound peptide. Results are the mean values from 3 independent experiments. C) Peptide stability in mouse serum was measured by intravenously injecting HPD*-IRDye800 (200 μM in 200 μL of PBS) in mice (n=5). Serum was collected at various time points from 0-24 hours post-injection. The fluorescence intensity I(t) was measured and fit to a first-order kinetics model I(t)=Io+A×exp(−Bt).
Finally, specific binding of HPD*-IRDye800 to EpCAM was validated using a co-localization assay. Binding by HPD*-IRDye800 and anti-EpCAM-AF488 to the surface (arrows) of Hep3B cells co-localized with a correlation of p=0.81 measured on the merged image, FIG. 3A.

[2] = peptide toxicity, animal necropsy histology (H&E); assay type: in vivo, mouse; conditions: brain, heart, liver, spleen, lung, kidney, stomach, colon
Protocol: Mice were sacrificed at […].
Tumor bearing mice were euthanized on day 0 and 15 post-injection of the HPD*-IRDye800 and control peptides. Whole blood (~600 μL) was collected by cardiac puncture and submitted for standard hematology and chemistry. Major organs, including liver, kidney, heart, lung, spleen, stomach, intestine, and brain were resected, processed, and evaluated as routine histology (H&E). A total of 8 mice in each cohort were evaluated.

[3] = serum stability (half-life) after intravenous injection in mice; assay type: in vivo; conditions: 40 nmol, mouse serum, 0-24 hours, first-order kinetics fit, read-out: serum half-life T1/2 (converted)
Protocol: as §1
The serum half-life of HPD*-IRDye800 was measured to assess peptide stability. HPD*-IRDye800 was injected intravenously in live mice. Fluorescence intensities were measured time points ranging from 0-24 hours, and fit to a first order kinetic model.

human HCC tumor = assay: ex vivo immunofluorescence of resected xenograft liver sections; set-up: species or system mouse; conditions: immunofluorescence on resected liver sections
Source text: After imaging was completed as described in Example 6, the mice were euthanized, and the livers were resected, formalin-fixed, and sectioned to confirm EpCAM expression in human […] tumors. […] The merged image confirms co-localization of peptide and antibody binding to HCC tumor but not to normal mouse liver, FIG. 8D.

[4] = system: human HCC Hep3B xenograft tumors; assay: in vivo NIR fluorescence imaging of orthotopic Hep3B xenograft tumors
[5] = in vivo whole-body fluorescence imaging, PDX tumor model of HCC; set-up: species or system mouse; conditions: mouse, in vivo, iv, 300 uM in 200 ul PBS, whole-body imaging up to 24 hours, read-out: time of peak T/B ratio post-injection
Protocol: (§2) A) Images were collected with excitation at λex=800 nm before (pre) and at 0, 0.5, 1.0, 1.25, 1.5, 2, 4 and 24 hours post-injection of HPD*-IRDye800. […] PFH*-IRDye800 was administered for use as control. […] B) The quantified T/B ratio confirms a peak uptake of HPD*-IRDye800 by tumor at 1.5 hours. The adjacent non-tumor tissue region with equal area to the tumor region was used for background.
(§3) Tumor-bearing mice [a patient-derived xenograft (PDX) tumor model of HCC] were injected intravenously with the HPD*-IRDye800 and control peptides (300 μM in 200 μl PBS). Unlabeled peptide and ICG were administrated as above. The spatial extent and margins of tumors were identified using a NIR whole-body fluorescence imaging system (Pearl®, LI-COR Biosciences) up to 24 h post injection. The images were acquired using λex=800 nm with 85 μm resolution and 16.8×12 cm^2 field of view (FOV). Image Studio software (Li-Cor Biosciences) was used for analysis. Regions of interest (ROI) with area equal to that of the tumor and adjacent in location was measured for background.

[6] = system: patient-derived xenograft (PDX) tumor model of HCC; assay: as above; set-up: species or system mouse; conditions: over 24 hours
Protocol: as §2, §3

human HCC specimens = assay: immunofluorescence binding to human HCC specimens ex vivo
Protocol: Binding of HPD*-IRDye800 to human HCC specimens and metastatic lymph nodes ex vivo was examined using immunofluorescence.
The merged images show co-localization of peptide and antibody binding to HCC and normal liver, and a Pearson's correlation coefficient of p=0.68 and 0.66, respectively, were calculated. […] Results were compared with histology evaluated by an expert liver pathologist.

[7] = system: HCC micrometastases in lung; assay: detection of lung micrometastases (immunofluorescence); set-up: species or system mouse; conditions: lung tissue sections of PDX tumor model mice
Source text: D) Anti-cytokeratin stain confirms presence of human tumor (arrow). […] F) Corresponding histology (H&E) verifies HCC tumor in lung.
Immunofluorescence images were also collected from lung tissue sections of the PDX tumor model of HCC mice.

in vivo = conditions: mouse, iv, 150 µM, 200 uL
Protocol: A total of n=8 animals were studied per group. […] P-values were calculated using a one-way ANOVA model. Background was defined as the adjacent non-tumor region with equal area of the tumor region.

EpCAM [8] = target: T1, EpCAM; assay: siRNA knockdown validation of binding (confocal microscopy); assay type: cell-based; conditions: for fluorescence intensity / cell surface staining, siEpCAM versus siCL: Hep3B (EpCAM+) cells, siRNA against EpCAM vs control siRNA
Protocol: (§4) An ANOVA was fit with terms for 3 treatments, 2 siRNA effects, and their interactions using slides in triplicate. […] Fluorescence intensities were measured from 10 cells chosen randomly from 3 slides. * P<0.01 by pairwise comparisons.
Specific binding of HPD*-IRDye800 to EpCAM was validated using siRNA knockdown in human SG231 (EpCAM+) ICC cells. Preliminary data were obtained using Hep3B (EpCAM+) human HCC cells. The cells were treated with siRNA against EpCAM (siEpCAM) and control siRNA (siCL).

EpCAM [9] = target: T1, EpCAM; assay: competition assay with unlabeled peptide; assay type: cell-based; conditions: unlabeled competitor added at 0-120 mM
Protocol: as §4
Specific binding of HPD*-IRDye800 to EpCAM was also validated using a competition assay. Unlabeled HPD* was added to compete for binding with IRDye800-labeled HPD* with concentrations ranging from […].

[10] = target: T2, Epithelial cell adhesion molecule (EpCAM) (human, UniProt P16422 24-314); assay: flow cytometry, HPD*-IRDye800 0-200 nM on Hep3B cells; apparent dissociation constant
T2 construct: whole, on cells; also called human EpCAM
T2 sequence (looked up): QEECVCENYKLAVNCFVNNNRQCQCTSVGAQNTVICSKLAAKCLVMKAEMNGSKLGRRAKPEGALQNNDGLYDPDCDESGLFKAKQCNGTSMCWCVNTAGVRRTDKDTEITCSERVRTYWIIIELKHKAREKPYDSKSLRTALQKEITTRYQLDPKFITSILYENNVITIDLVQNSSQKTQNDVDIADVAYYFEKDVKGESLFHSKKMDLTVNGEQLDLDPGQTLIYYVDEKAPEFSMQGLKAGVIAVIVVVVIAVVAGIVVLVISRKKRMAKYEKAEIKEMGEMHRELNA

In the case of `CSCC[C@H](NC(=O)[C@H](CC(=O)O)NC(=O)[C@@H]1CCCN1C(=O)[C@@H](N)Cc1c[nH]cn1)C(=O)N[C@@H](Cc1ccccc1)C(=O)N[C@H](C(=O)N[C@@H](CCCNC(=N)N)C(=O)N[C@H](C(=O)N[C@@H](Cc1c[nH]cn1)C(=O)N[C@@H](CO)C(=O)N[C@@H](Cc1c[nH]cn1)C(=O)N[C@@H](CC(N)=O)C(=O)NCC(=O)NCC(=O)NCC(=O)N[C@@H](CO)C(=O)N[C@@H](CSC1CC(=O)N(CCNC(=O)CCCCCN2C(=CC=C3CCCC(C=CC4=[N+](CCCCS(=O)(=O)[O-])c5ccc(S(=O)(=O)O)cc5C4(C)C)=C3Oc3ccc(S(=O)(=O)O)cc3)C(C)(C)c3cc(S(=O)(=O)O)ccc32)C1=O)C(N)=O)[C@@H](C)O)[C@@H](C)O` (some centres unmarked) [HPD*-IRDye800] (H-HPDMFTRTHSHNGGGSC(X1)-NH2; N-terminus and C-terminus assumed), the “binding to the surface of Hep3B human HCC cells” value (EpCAM [1]; confocal microscopy) is reported as “bind intensely”, the “Pearson's correlation coefficient, co-localization with anti-EpCAM-AF488” value (from here on “Pearson's correlation coefficient”) (EpCAM [1]; merged image, Hep3B cells) is reported as 0.81 and the “acute toxicity on histology (H&E) of vital organs” value [2] is reported as “No signs of acute toxicity”. The half-life [3] was 2.6 h, the “staining of HCC tumor cell surface (but not normal mouse liver)” value (human HCC tumor) was “strong staining; also recorded: Bright fluorescence” and the “time to near complete clearance / signal back to baseline” value ([4]; Hep3B xenograft tumors, post-injection) was ~ 48 hours. The “NIR fluorescence intensity of tumor versus PFH*-IRDye800” value ([4]; […] post-injection, Hep3B xenograft) was “significantly greater”, the “mean tumor intensity, fold greater than PFH*-IRDye800” value ([4]; […] post-injection, tail vein, Hep3B xenograft) was greater than 3.2 fold and the tissue to tissue ratio [5] was 1.5. The “tumor uptake / T/B ratio in whole-body images” value (“tumor uptake / T/B ratio” below) [6] was “greater uptake”, the “fold increase in mean fluorescence intensity, HCC versus normal human liver” value (human HCC specimens; HCC n=36, normal n=12) was 2.6 fold and the “Pearson's correlation coefficient” value (human HCC specimens; human HCC sections) was 0.68. For the same molecule, the “AUC of ROC curve, HCC versus normal” value (human HCC specimens; human specimens ex vivo) was 0.81, the “sensitivity to distinguish HCC from normal (ROC)” value (human HCC specimens; human specimens ex vivo) was 85% and the “specificity to distinguish HCC from normal (ROC)” value (human HCC specimens; human specimens ex vivo) was 66%. The “mean fluorescence intensity, binding to HCC versus normal human liver” value (human HCC specimens; immunofluorescence) was “significantly greater”, the “staining of the surface of human HCC cells” value (human HCC specimens; immunofluorescence, human specimens) was “Intense staining; also recorded: strong staining” and the “Pearson's correlation coefficient” value (human HCC specimens; normal human liver sections) was 0.66. For the same molecule, the “detection of / binding to HCC micrometastases in lung” value [7] was “detected very small tumor volumes in the form of micrometastases; also recorded: strong binding”, the tissue to tissue ratio (in vivo) was 1.5 and the “fluorescence intensity / cell surface staining, siEpCAM versus siCL” value (EpCAM [8]) was “Decreased cell surface staining; also recorded: reduced intensity”. For the same molecule, the “binding to the surface of siCL (control) Hep3B cells” value (EpCAM [8]; confocal microscopy, control siRNA Hep3B cells) was “strong binding”.

In the case of `CC1(C)C(/C=C/C=C/C=C/C=C2\N(CCCCS(=O)(=O)[O-])c3ccc4ccccc4c3C2(C)C)=[N+](CCCCS(=O)(=O)[O-])c2ccc3ccccc3c21.[Na+]` [ICG, reference compound], the “time of peak uptake / peak T/B ratio post-injection” value ([4]; Hep3B xenograft tumors, imaged 0-48 hours) is reported as “over 48 hours” and the “tumor uptake / T/B ratio” value [6] is reported as “non-specific uptake”.

For “HPDMFTRTHSHN [HPD*, Optimized EpCAM-specific peptide, unlabeled]”, the “mean fluorescence intensity from HPD*-IRDye800 with competition from unlabeled peptide” value (EpCAM [9]) was “Decreased intensity; also recorded: decreased significantly”, the “tumor uptake / T/B ratio” value [6] was “reduced values” and the “fluorescence intensity / cell surface staining, siEpCAM versus siCL” value (EpCAM [8]) was “significantly greater signal for siCL versus siEpCAM”.

With “PFHDMHSNHTRT [PFH*, Unlabeled scrambled peptide (control), reference compound]” the “fluorescence intensity / cell surface staining, siEpCAM versus siCL” value (EpCAM [8]) was “non-significant difference”.

B1: HPD*-IRDye800 (peptide)
peptide: HPDMFTRTHSHNGGGSC
modifications: also: IRDye800 attached via C-terminal GGGSC linker
notes: also called IRDye800-labeled HPD*; EpCAM-specific peptide conjugate
Work on B1 yielded a Kd [10] of 43 nM.

— patent US20260199529A1, “EPITHELIAL CELL ADHESION MOLECULE-SPECIFIC PEPTIDE CONJUGATES AND METHODS” (REGENTS OF THE UNIVERSITY OF MICHIGAN, priority 2022, published 2026)
